These are literature values, as cited in US20060246141A1, “Nanoparticulate lipase inhibitor formulations” (Elan Pharma International, Limited, priority 2005, published 2006).

Where two headings read alike, the source gives them in different places.

For data set [1] the following is noted: physiological pH range.
The test system of data set [2] is gastric and pancreatic lipases. As to conditions: recommended therapeutic dose of 120 mg three times a day.

On to `CCCCCCCCCCCC(CC1OC(=O)[C@H]1CCCCCC)OC(=O)C(CC(C)C)NC=O` (stereo in doubt) [Orlistat, (S)-2-formylamino-4-methyl-pentanoic acid (S)-1-[[(2S, 3S)-3-hexyl-4-oxo-2-oxetanyl]methyl]-dodecyl ester], for which the pKa result in data set [1] was “no pKa within the physiological pH range”. Also, the Solubility result was “freely soluble” (in chloroform); “very soluble” (in methanol and ethanol); “practically insoluble” (in water). The “Inhibition of dietary fat absorption” value in data set [2] is given as “approximately 30%”.
